In patent US9617538B2, “Heptamer-type small guide nucleic acids inducing apoptosis of human leukemia cells” (NIIGATA UNIVERSITY OF PHARMACY AND APPLIED LIFE SCIENCE, priority 2011, dated 2017):
{P} = phosphate

Experiments:
[1] = tested on: human myeloma cell line KMM1; assay: MTT assay, KMM1; type: cell-based; conditions: sgRNA 1 μM, no delivery reagent, 72 hours (3 days), vs sgRNA non-administered group
Experimental: (§1) Each sgRNA (final concentration 1 μM) was added to a 96-well culture plate containing human cancer cell lines (1,000 cells/100 μl medium), without using a reagent for the delivery of the sgRNA into the cells. The cells were then cultured in a 37° C. CO2 incubator. […] Leukemia cells HL60, and myeloma cells KMM1 and RPMI-8226 were used as the human cancer cell lines, and the viable cell count was compared with that of an sgRNA non-administered group. As controls, each sgRNA was introduced to normal cells HEK293, and the same MTT assay was performed. • (1-3) Flow Cytometry Experiment

[2] = tested on: human myeloma cell line RPMI-8226; assay: MTT assay, RPMI-8226; type: cell-based; conditions: sgRNA 1 μM, no delivery reagent, 72 hours (3 days), vs sgRNA non-administered group
Experimental: as §1

[3] = tested on: human leukemia cell line HL60; assay: MTT assay, HL60; type: cell-based; conditions: sgRNA 1 μM, no delivery reagent, 72 hours (3 days), vs sgRNA non-administered group
Experimental: as §1

[4] = tested on: human leukemia cells HL60; assay: Mouse xenograft experiment; type: in vivo, immunodeficient nude mice; conditions: HL60 subcutaneous xenograft; sgRNA 100 μM, 10 μl at transplantation site once daily for 5 days; difference of median survival time vs non-administered or ineffective-sgRNA group
Experimental: 2×10^6 human leukemia cells HL60 were subcutaneously transplanted into immunodeficient nude mice with an extracellular matrix. Each heptamer-type sgRNA (100 μM) was continuously administered to the transplantation site in a dose of 10 μl, once each day for 5 days, and the tumor volume was measured every day. The mice were euthanized upon the tumor volume reaching 1,500 mm^3. The experiment was conducted with groups of 6 to 8 mice, and the difference between the median value of the survival time of each sgRNA administered group and the median value of the survival time of the non-administered group (or a group administered with the ineffective heptamer-type sgRNA) was calculated as the extended lifetime due to the heptamer-type sgRNA. • (2) Results • (2-1) MTT Assay

Row | Substance | MTT assay (Percentage reduction of viable cells) KMM1 [1] | MTT assay (Percentage reduction of viable cells) RPMI [2] | MTT assay (Percentage reduction of viable cells) HL60 [3] | Mouse xenograft experiment (Extended lifetime) [4]
1 | Hep1(HAGE): heptamer-type sgRNA 5′-UCUUUCC-3′, phosphorylated at the 5′ and 3′ ends, 2′-O-methylated (all 2'-O-methyl, 5' {P}, 3' {P}, backbone not given here) | 61% | 5% | 91% | –
2 | Hep1(MYC): heptamer-type sgRNA 5′-CAGCUCG-3′, phosphorylated at the 5′ and 3′ ends, 2′-O-methylated (all 2'-O-methyl, 5' {P}, 3' {P}, backbone not given here) | 56% | 16% | 90% | –
3 | Hep1(bcl-2): heptamer-type sgRNA 5′-GGGCCAG-3′, phosphorylated at the 5′ and 3′ ends, 2′-O-methylated (all 2'-O-methyl, 5' {P}, 3' {P}, backbone not given here) | 0% | 18% | 88% | (+22 days)
4 | Hep2(HAGE): heptamer-type sgRNA 5′-UAUAUUU-3′, phosphorylated at the 5′ and 3′ ends, 2′-O-methylated (all 2'-O-methyl, 5' {P}, 3' {P}, backbone not given here) | 72% | 5% | 94% | –
5 | Hep2(PKCb): heptamer-type sgRNA 5′-CCGGGGC-3′, phosphorylated at the 5′ and 3′ ends, 2′-O-methylated (all 2'-O-methyl, 5' {P}, 3' {P}, backbone not given here) | 48% | 75% | 93% | –
6 | Hep2(bcl-2): heptamer-type sgRNA 5′-GGGGGCG-3′, phosphorylated at the 5′ and 3′ ends, 2′-O-methylated (all 2'-O-methyl, 5' {P}, 3' {P}, backbone not given here) | 24% | 69% | 99% | (+19 days)
7 | Hep3(MYC): heptamer-type sgRNA 5′-GCAGCUC-3′, phosphorylated at the 5′ and 3′ ends, 2′-O-methylated (5' {P}, 3' {P}, sugars by position and backbone not given here; 2'-O-methylated) | 67% | 2% | 90% | –
8 | Hep5(IRF4): heptamer-type sgRNA 5′-GGGUCCU-3′, phosphorylated at the 5′ and 3′ ends, 2′-O-methylated (5' {P}, 3' {P}, sugars by position and backbone not given here; 2'-O-methylated) | 69% | 6% | 86% | –
9 | Hep5(MYC): heptamer-type sgRNA 5′-GCUGCUG-3′, phosphorylated at the 5′ and 3′ ends, 2′-O-methylated (5' {P}, 3' {P}, sugars by position and backbone not given here; 2'-O-methylated) | 72% | 0% | 86% | –
10 | Hep5(PRAME): heptamer-type sgRNA 5′-GCUCUGC-3′, phosphorylated at the 5′ and 3′ ends, 2′-O-methylated (5' {P}, 3' {P}, sugars by position and backbone not given here; 2'-O-methylated) | 17% | 54% | 94% | –
11 | Hep6(PRAME): heptamer-type sgRNA 5′-UCCAGGU-3′, phosphorylated at the 5′ and 3′ ends, 2′-O-methylated (all 2'-O-methyl, 5' {P}, 3' {P}, backbone not given here) | 15% | 10% | 95% | –
12 | Hep7(WT1): heptamer-type sgRNA 5′-CUGCUUU-3′, phosphorylated at the 5′ and 3′ ends, 2′-O-methylated (5' {P}, 3' {P}, sugars by position and backbone not given here; 2'-O-methylated) | 24% | 46% | 98% | –
13 | Hep8(FGFR3): heptamer-type sgRNA 5′-AUCUUCA-3′, phosphorylated at the 5′ and 3′ ends, 2′-O-methylated (all 2'-O-methyl, 5' {P}, 3' {P}, backbone not given here) | 78% | 76% | 87% | (+10 days)
14 | Hep9(FGFR3): heptamer-type sgRNA 5′-CACCAGC-3′, phosphorylated at the 5′ and 3′ ends, 2′-O-methylated (all 2'-O-methyl, 5' {P}, 3' {P}, backbone not given here) | 79% | 76% | 95% | (+6 days)
15 | Hep(YW): heptamer-type sgRNA 5′-GCAUGCG-3′, phosphorylated at the 5′ and 3′ ends, 2′-O-methylated (all 2'-O-methyl, 5' {P}, 3' {P}, backbone not given here) | 59% | 0% | 96% | –
